Tests used:
[1] = Ames-Test Screening
[2] = cellular assays (not further specified); format: cell-based
Protocol: [The Measurement of RANTES Production in Response to TNF-α from A549 cells]
(1) Preparation of A549 Cells
• The A549 human lung epithelium cell line (ATCC […]) was maintained in Dulbecco's modified Eagle's medium (D-MEM, Nikken Biomedical Institute) supplemented with 10% FCS (Gibco), 100 U/ml penicillin, 100 μg/ml streptomycin, and 2 mM glutamine (culture medium). Forty thousand (4×10^4) cells (80 μl/well) were seeded in each well of 96 well flat-bottom tissue culture plate (Falcon #3072). The plate was allowed to stand for 2 hrs, thus the cells were adhered to the bottom of each well. To the each well was added 10 μl vehicle (1% DMSO), serial dilutions of test compounds in 1% DMSO, or 5 nM Dexamethasone in 1% DMSO as a reference. The mixture (90 μl/well) was incubated for 1 hr at 37° C. After 1 hr, 1 μg/ml TNF-α (10 μl) in culture medium was added to the mixture to obtain 100 μl of reaction mixture. The reaction mixture was cultured for 24 hrs to stimulate the cells with 100 ng/ml TNF-α. […] (2) Measurement of RANTES Production • Then the concentration of RANTES released from the cells in the supernatants of each well was determined using a quantitative sandwich enzyme immunoassay technique. […] Fluorescent intensity was measured using a DELFIA fluorimeter (Wallac). Excitation was performed at 340 nm and emission was measured at 615 nm. […]

[3] = test system: LPS-induced TNF-α production; assay: Rat LPS-induced TNF-α production; format: in vivo, Wistar female rats; details: in Rat
Protocol: [Rat LPS-Induced TNF-α Production]
Seven weeks old Wistar female rats were used. One mg of LPS (lypopolysaccharide) dissolved in phosphate buffer saline (pH 7.4) was administered intraperitoneally (i.p.) to rats. Compounds were given orally 60 minutes prior to the LPS injection. Under anesthesia with pentobarbital (80 mg/kg, i.p.), blood was collected from the posterior venous cavity of the rats 120 minutes post-LPS injection and added into 96-well plate containing 2% EDTA solution. The plasma was separated by centrifugation at 1800 rpm for 10 minutes at 4° C. and then diluted with four times volumes of phosphate buffer saline (H 7.4) containing 1% bovine serum albumin. TNF-α concentration in the sample was determined using an ELISA kit (Endogen, Boston, Mass.).
The mean TNF-α level in 7-8 rats from each group was determined and the percent reduction in TNF-α levels was calculated.

**Q.** Which “mutagenicity according to the Ames-Test Screening” value [1] does the source give for `O=C1Nc2nc(-c3c(O)cccc3OCC3CC3)cc([C@@H]3CCCNC3)c2CO1` [the compound of the present invention, (−)-7-[2-(cyclopropylmethoxy)-6-hydroxy-phenyl]-5-[(3S)-3-piperidinyl]-1,4-hydro-2H-pyrido [2,3-d][1,3]oxazin-2-one] here?
**A.** non-mutagenic

**Q.** And the “cellular activity compared with corresponding racemic modification” value [2]?
**A.** twice as strong as corresponding racemic modification

**Q.** And the “anti-inflammatory activity compared with corresponding racemic modification” value [3]?
**A.** twice as strong as corresponding racemic modification
